Assay: in vitro
Conditions: human, hela cells, % viability

SMILES | viability at 28.5 h, 10 µM
CN1CCN(C(=S)SCc2nc(N)nc(Nc3ccc(F)cc3)n2)CC1 [CBK265230] | 81.4%
COCC(=O)Nc1nc(OC)cnc1/C=C\c1ccccc1 [CBK145360] | 113%
CC(C)C(=O)N1C[C@H]2CCc3nnc(-c4ccccc4)n3[C@H]2C1 [CBK283438] | 88%
O=C(O)CCCn1cc(NC(=O)CCc2ccccc2)cn1 [CBK287055] | 86.4%
CC(=O)Nc1ccc(C(=O)CSc2nc(-c3ccccc3)c(-c3ccccc3)o2)cc1 [CBK266168] | 87.6%
COc1ccccc1-c1nccnc1OCc1cccs1 [CBK106819] | 88.4%
c1ccc(N2CCC(CNCc3c[nH]nc3-c3cccnc3)C2)cc1 (centres unmarked) [CBK305738] | 88.7%
C/C=C/c1ccc(OCCNC2CCCC2)c(OC)c1 [CBK266399G] | 93.9%
c1ccc(CCN2CCC(Oc3cncc(OCCN4CCOCC4)n3)C2)cc1 (centres unmarked) [CBK084497] | 87.6%
c1ccc(-c2ccc(COc3cncc(N4CCNCC4)n3)s2)nc1 [CBK008960G] | 85.4%
COc1cc(CN2CCN(c3cc(C)ccc3C)CC2)cc([N+](=O)[O-])c1O [CBK261868] | 95.5%
Cc1nn(-c2ccc(F)cc2)c(C)c1C(=O)NCc1ccnc(N2CCCC2)c1 [CBK296700] | 93.3%
O=C(CCN1CCN(CCO)CC1)Nc1cccc(Br)c1 [CBK058502] | 102%
Cc1cccc(CN2CCC(NC(=O)Cn3cnnn3)CC2)c1 [CBK305649] | 95.9%
O=C(CC1NC(=O)NC1=O)Nc1ccccc1 (centres unmarked) [CBK267331] | 90.4%
COC(=O)c1cccc(OCC(O)Cn2ccnc2)c1 (centres unmarked) [CBK307408] | 102%
Cc1ccc(S(=O)(=O)c2cc3c(=O)n4ccccc4nc3n(CCN3CCOCC3)c2=N)cc1 [CBK265637] | 80.3%
COc1cccc(OCC(O)CN2CCN(Cc3ccccc3)CC2)c1 (centres unmarked) [CBK074856C] | 108%
Clc1ccc(OCCCn2ccnc2)c(CN2CCSCC2)c1 [CBK307194] | 104%
O=C(NCCCc1nc2ccccc2[nH]1)c1ccccc1 [CBK268429] | 96.9%
CC(=O)Nc1ccc(S(=O)(=O)N2CCN(S(=O)(=O)c3ccccc3)CC2)cc1 [CBK264163] | 94%
CC(=O)NCC(CN1CCOCC1)([N+](=O)[O-])[N+](=O)[O-] [CBK261337] | 88.2%
CCNC(=O)C1CCN(Cc2c[nH]nc2-c2ccc(F)cc2)C1 (centres unmarked) [CBK307438] | 90%

SMILES | viability at 28.5 h, 10 µM
O=C(O)C1CC=CCC1C(=O)NCc1ccc2c(c1)OCO2 (centres unmarked) [CBK264209] | 96.4%
COc1cccc(/C=N/NC(=O)CSc2nnc(C)n2-c2ccccc2)c1O [CBK262758] | 80.7%
CC[C@H](Cn1c(=O)oc2ccccc21)NC(=O)Cc1ccsc1 [CBK284543] | 89.2%
COc1ccccc1CC(=O)N1CC[C@@H]2NC(=O)[C@H]3C[C@H](NC(=O)C4CC4)CN3C(=O)[C@H]21 [CBK289267] | 103%
CS(=O)(=O)c1ccc(-c2cccc(COC3CCN(C(=O)Cc4cccc5ccccc45)CC3)c2)cc1 [CBK149510] | 90.6%
Cc1cccc(C)c1N(C1CCNCC1)S(=O)(=O)c1ccc2c(c1)CCO2 [CBK153668T] | 99.1%
COc1ccc(OC)c2[nH]c(C(=O)N3CCCC34CC=CC4)cc12 [CBK282814] | 85.9%
Cc1ccc(C(=O)N2CN(C(=O)CN3CCOCC3)CC(C)(C)C2)cc1 [CBK039190] | 105%
COc1ccc(C(=O)Nc2ccc(N3CCNCC3)nc2)cc1 [CBK029434T] | 111%
Cc1nn(C)c(C)c1CN(C(=O)C(C)Oc1ccccc1F)C1CC1 (centres unmarked) [CBK281480] | 86.6%
Cc1ccc(-c2nnc(-c3cccc(S(=O)(=O)N4CCOCC4)c3)o2)cc1 [CBK263215] | 112%
O=C(O)CCC(=O)NCCc1ccc(Cl)cc1 [CBK287165] | 92.7%
CCN(c1cc(N2CCCNCC2)ccc1NS(=O)(=O)c1cccc2cccnc12)S(C)(=O)=O [CBK000014C] | 80.1%
O=C1CN(S(=O)(=O)c2ccc(NS(=O)(=O)c3ccc4ccccc4c3)cc2)CC(=O)N1 [CBK262513] | 95.4%
COc1cc(NC(=O)C(C)Oc2ccc(Cl)cc2C)c(C(=O)O)cc1OC (centres unmarked) [CBK266430] | 86%
O/N=C1\CC(c2ccccc2)Oc2ccc(Cl)cc21 (centres unmarked) [CBK288370] | 91.1%
O=C(NCc1ccc(Cl)c(Cl)c1)N1CCN(Cc2ccccc2)CC1 [CBK155624] | 85.3%
CCN1CCN(C(=O)c2c(C)noc2C)CC1 [CBK200374] | 93.6%
O=C(CSc1nnc2c(n1)[nH]c1ccccc12)NCCOc1ccccc1 [CBK268358] | 101%
C=Cn1cc(CN2CCN(C3CCCCC3)C(=O)C2)c(C)n1 [CBK282561] | 109%
CC(C)C1C2CCCCC2=NN1C(=O)/C=C/C(=O)O (centres unmarked) [CBK286862] | 93.1%
Cc1nc(CCNc2ccc(-c3nc(C)c(C)c(=O)[nH]3)cn2)cs1 [CBK305497] | 107%
CC(C)(C)NS(=O)(=O)c1ccc(CCC(=O)Nc2ccc(F)c(Cl)c2)cc1 [CBK266974] | 89.9%

SMILES | viability at 28.5 h, 10 µM
CC1(C)Sc2nc3ccccc3n2C1=O [CBK022971] | 85.4%
c1ccc(-c2ccc(-c3cc(N4CCN(CCN5CCCC5)CC4)ncn3)cc2)cc1 [CBK091165] | 99%
CC(=O)OCc1c(C)cc(C)c(CN(C)C(C)c2ccncn2)c1C (centres unmarked) [CBK307315] | 95.1%
Cc1cc(N2CCN(c3ccc(O)cc3)CC2)n2nc(-c3nccn3C)cc2n1 [CBK286188] | 91.2%
CNC(=S)N1CCN(c2nccnc2NS(=O)(=O)C2CC2)CC1 [CBK048905] | 96.2%
CN(C)CC1CCCCN1C(=O)[C@@H]1C[C@@H]2C=C[C@H]1C2 (some centres unmarked) [CBK282086] | 105%
COC(=O)c1cc(C#N)c(=O)n(CC(O)COc2cccc(Br)c2)c1 (centres unmarked) [CBK304984] | 80.5%
COc1cc(-c2nc(N)cc3ccccc23)cc(OC)c1OC [CBK085726] | 102%
CCCc1nc(NC(CC)c2nc(C)c(C)s2)c2cnn(C)c2n1 (centres unmarked) [CBK307261] | 89.1%
O=C(c1cc(F)c(F)cc1F)N1CCC2(CCCN(Cc3cc(=O)[nH]c(=O)[nH]3)C2)C1 (centres unmarked) [CBK132010] | 101%
Cc1noc(C)c1S(=O)(=O)Nc1cccc(C(=O)O)c1 [CBK038902] | 102%
N#CC1=C(N)Oc2[nH]nc(-c3cccs3)c2C1c1ccco1 (centres unmarked) [CBK266088] | 99%
O=C(Cc1ccc(F)cc1)N1C2CCC1CC(O)(c1ccco1)C2 (centres unmarked) [CBK284033] | 86.4%
Nc1nc(-c2ccccc2I)n[nH]1 [CBK027413] | 93.4%
CO/N=C(\C(=O)O)c1cn2cccnc2n1 [CBK262252] | 91.5%
COc1cc(NC(=O)N[C@@H]2CN(C)C[C@H]2c2ccc(OC)c(OC)c2)cc(OC)c1 [CBK081112] | 93%
COc1ccc2[nH]c3c(c2c1)CCNC31CCN(CCCN2C(=O)C3CCCCC3C2=O)C1 (centres unmarked) [CBK059518] | 88.9%
CCC(c1cccc(OC)c1)N(C)C(=O)CC1CCN(c2nc(C)cc(C)n2)CC1 (centres unmarked) [CBK286255] | 99.7%
O=[N+]([O-])c1ccc(Sc2nnc(COc3ccccc3)n2-c2ccccc2)nc1 [CBK265041] | 85.8%
Cc1nc(-c2ccccc2)sc1CNC(=O)CCc1c[nH]c2ccccc12 [CBK092373] | 106%
Cc1nc(CNc2ccc3nnc(C(F)(F)F)n3n2)cs1 [CBK305674] | 91.6%
CS(=O)(=O)Nc1ccc(C(=O)N2CC(=O)Nc3ccccc32)cc1 [CBK269827] | 90.8%
COC(=O)c1cccc(OCC(O)Cn2nc(C)c(C)c(C#N)c2=O)c1 (centres unmarked) [CBK305563] | 85.3%

SMILES | viability at 28.5 h, 10 µM
O=C(Nc1ccc(Br)cc1C(=O)O)c1cccc(C(=O)Nc2ccc(Br)cc2C(=O)O)c1 [CBK261395] | 90.5%
CS(=O)(=O)N1CCC(C(=O)NC(c2ccccc2)c2cnccn2)CC1 (centres unmarked) [CBK059901] | 105%
CN(c1cc(F)ccc1[N+](=O)[O-])S(C)(=O)=O [CBK001365] | 82.1%
CCCOCC1CCN(C(=O)Nc2ccc(Oc3cccnc3)cc2)C1 (centres unmarked) [CBK306799] | 102%
COc1ccc([C@@]23CC[C@@H](NS(=O)(=O)c4ccc5ccccc5c4)C[C@@H]2N(C)CC3)cc1OC [CBK056848T] | 96.8%
CC1CCCN(CC(O)COCc2ccc3c(c2)OCO3)C1 (centres unmarked) [CBK262830C] | 105%
Cc1cccc(C(=O)N[C@@H](C)Cn2nc3c(cc2=O)CCCC3)c1 [CBK284563] | 89.1%
COc1cc(C#N)ccc1OCc1cc(C)on1 [CBK002581] | 86.1%
CC(c1nc(N)nc(N(C)C)n1)N(C)CCOc1ccccc1F (centres unmarked) [CBK306053] | 88.2%
Cc1ccc2[nH]c3c(c2c1)CCNCC3 [CBK004811] | 98.3%
CC(O)c1nc2ccc(Cl)cc2[nH]1 (centres unmarked) [CBK115573] | 102%
COc1ccc2c(c1)CC(=O)NC21CCN(C(=O)N[C@@H](C)c2ccccc2)CC1 [CBK047325] | 92.4%
O=C(CC(CN1CCN(CCO)CC1)C(=O)O)Nc1ccccc1F (centres unmarked) [CBK286790] | 86%
CN1CCN(CC(=O)Nc2ccc(Cl)cc2C(=O)c2ccccc2)CC1 [CBK266246] | 91.8%
O=C1NC(=O)C2(CCN(Cc3ccccc3)CC2)N1 [CBK005078] | 86.8%
O=c1cc(NCc2ccncc2)c2ccccc2o1 [CBK017259] | 93.5%
O=C(O)c1ccc(Cl)c2c1C1C=CCC1C(c1ccc(S(=O)(=O)N3CCOCC3)cc1)N2 (centres unmarked) [CBK268401] | 108%
O=C(NC(C(=O)N/N=C/c1coc2ccccc2c1=O)c1n[nH]c(=O)c2ccccc12)c1ccccc1 (centres unmarked) [CBK262847] | 95.3%
CS(=O)(=O)Nc1cc(-c2noc([C@@H]3CCCN3C3CCC3)n2)ccn1 [CBK288889] | 112%
CC1(C)CC(NC2=CC(=O)CC2)CC(C)(C)N1 [CBK028997] | 115%
